Measured values: patent US10562900B2 (Shanghai Haihe Pharmaceutical Co., Ltd., priority 2014, dated 2020)

Assays:
FGFR1 = FGFR1 (Homo sapiens (Human), UniProt P11362); assay: FGFR1 kinase activity at the molecular level (ELISA, Poly(Glu,Tyr) 4:1 substrate); assay type: biochemical; settings: kinase domain recombinant protein, 5 μM ATP
Description: (§1) 100 μL/well of 2 mg/mL OPD developing solution (diluted with 0.1M citric acid-sodium citrate buffer containing 0.03% H2O2 (pH=5.4)), and reacted in dark for 1-10 minutes at 25° C.

FGFR2 = FGFR2 (Homo sapiens (Human), UniProt P21802); assay: FGFR2 kinase activity at the molecular level (ELISA, Poly(Glu,Tyr) 4:1 substrate); assay type: biochemical; settings: kinase domain recombinant protein, 5 μM ATP
Description: as §1

Sequence of FGFR1 (P11362 478-767): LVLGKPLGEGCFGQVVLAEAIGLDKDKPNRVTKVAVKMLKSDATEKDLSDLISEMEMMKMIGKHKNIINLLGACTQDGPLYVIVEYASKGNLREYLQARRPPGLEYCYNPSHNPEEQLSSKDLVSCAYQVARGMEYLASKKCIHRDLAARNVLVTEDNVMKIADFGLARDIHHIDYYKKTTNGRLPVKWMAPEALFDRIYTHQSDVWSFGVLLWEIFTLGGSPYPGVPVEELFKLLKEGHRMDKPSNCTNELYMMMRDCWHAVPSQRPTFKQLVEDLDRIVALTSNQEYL
Sequence of FGFR2 (P21802 481-770): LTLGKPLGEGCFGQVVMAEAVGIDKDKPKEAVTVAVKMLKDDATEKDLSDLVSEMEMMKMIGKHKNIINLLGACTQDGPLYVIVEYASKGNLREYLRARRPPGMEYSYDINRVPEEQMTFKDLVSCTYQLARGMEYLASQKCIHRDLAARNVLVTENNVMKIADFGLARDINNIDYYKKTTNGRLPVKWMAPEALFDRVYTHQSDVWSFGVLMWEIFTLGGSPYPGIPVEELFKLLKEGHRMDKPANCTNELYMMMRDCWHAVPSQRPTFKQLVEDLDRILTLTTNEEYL

| Compound | IC50 (FGFR1) | IC50 (FGFR2) |
| --- | --- | --- |
| COc1cc(OC)c(Cl)c(-c2ccc3c(NC(=O)c4ccc(N5CC(C)(C)NC(C)(C)C5)cc4)n[nH]c3n2)c1Cl [Example 99] | < 0.1 µM | < 0.1 µM |
| COc1cc(OC)cc(-c2ccc3c(NC(=O)c4ccc(N5C[C@@H](C)N[C@@H](C)C5)cc4)n[nH]c3n2)c1 [Example 68, N-(6-(3,5-dimethoxyphenyl)-1H-pyrazolo [3,4-b]pyridin-3-yl)-4-(((3R,5S)-3,5-dimethylpiperazine-1-yl))benzamide] | < 0.1 µM | < 0.1 µM |
| COc1cc(C(=O)Nc2n[nH]c3nc(-c4c(Cl)c(OC)cc(OC)c4Cl)ccc23)ccc1N1CCNC(C)(C)C1 [Example 101, N-(6-(2,6-dichloro-3,5-dimethoxyphenyl)-1H-pyrazolo [3,4-b]pyridin-3-yl)-4-(3,3-dimethylpiperazine-1-yl)-3-methoxybenzamide] | < 0.1 µM | < 0.1 µM |
| COc1cc(OC)c(Cl)c(-c2ccc3c(NC(=O)c4ccc(N5C[C@@H](C)N(C)[C@@H](C)C5)cc4)n[nH]c3n2)c1Cl [Example 90] | < 0.1 µM | < 0.1 µM |
| COc1cc(OC)c(Cl)c(-c2ccc3c(NC(=O)c4ccc(N5CC6(CNC6)C5)cc4)n[nH]c3n2)c1Cl [Example 73, N-(6-(2,6-dichloro-3,5-dimethoxyphenyl)-1H-pyrazolo [3,4-b]pyridin-3-yl)-4-(2,6-diazaspiro [3.3]heptane-2-yl)benzamide] | < 0.1 µM | < 0.1 µM |
| COCCN1CCN(c2ccc(C(=O)Nc3n[nH]c4nc(-c5c(Cl)c(OC)cc(OC)c5Cl)ccc34)cc2)CC1 [Example 67] | < 0.1 µM | < 0.1 µM |
| COc1cc(OC)c(Cl)c(-c2ccc3c(NC(=O)c4ccc(N5CCOCC5)cc4)n[nH]c3n2)c1Cl [Example 70, N-(6-(2,6-dichloro-3,5-dimethoxyphenyl)-1H-pyrazolo [3,4-b]pyridin-3-yl)-4-morpholino benzamide] | < 0.1 µM | < 0.1 µM |
| COc1cc(OC)c(Cl)c(-c2ccc3c(NC(=O)c4ccc(NCCCN(C)C)cc4)n[nH]c3c2)c1Cl [Example 26, N-(6-(2,6-dichloro-3,5-dimethoxyphenyl)-1H-indazole-3-yl)-4-((3(dimethylamino)propyl)amino)benzamide] | < 0.1 µM | < 0.1 µM |
| COc1cc(OC)c(Cl)c(-c2ccc3c(NC(=O)c4ccc(N5CCN(C)CC5)nc4)n[nH]c3n2)c1Cl [Example 85, N-(6-(2,6-dichloro-3,5-dimethoxyphenyl)-1H-pyrazolo [3,4-b]pyridin-3-yl)-6-(4-methylpiperazine-1-yl)nicotinamide] | < 0.1 µM | < 0.1 µM |
| COc1cc(OC)c(Cl)c(-c2ccc3c(NC(=O)c4ccc(N5CCNC(C)(C)C5)cc4)n[nH]c3n2)c1Cl [Example 72] | < 0.1 µM | < 0.1 µM |
| COc1cc(OC)c(Cl)c(-c2ccc3c(NC(=O)c4ccc(N5C[C@@H](C)N[C@@H](C)C5)cc4)n[nH]c3n2)c1Cl [Example 64, N-(6-(2,6-dichloro-3,5-dimethoxyphenyl)-1H-pyrazolo [3,4-b]pyridin-3-yl)-4-((3S,5R)-3,5-dimethylpiperazine-1-yl)benzamide] | < 0.1 µM | < 0.1 µM |
| COc1cc(OC)c(Cl)c(-c2ccc3c(NC(=O)c4ccc(N5CCNC(C)(C)C5)cc4)n[nH]c3c2)c1Cl [Example 22, N-(6-(2,6-dichloro-3,5-dimethoxyphenyl)-1H-indazole-3-yl)-4-(3,3-dimethyl-1-yl)benzamide] | < 0.1 µM | < 0.1 µM |
| COc1cc(OC)c(Cl)c(-c2ccc3c(NC(=O)c4cnn(CCO)c4)n[nH]c3c2)c1Cl [Example 31, N-(6-(2,6-dichloro-3,5-dimethoxyphenyl)-1H-indazole-3-yl)-1-(2-hydroxyethyl)-1H-pyrazol-4-formamide] | < 0.1 µM | < 0.1 µM |
| COc1cc(OC)c(F)c(-c2ccc3c(NC(=O)c4ccc(N5C[C@@H](C)N[C@@H](C)C5)cc4)n[nH]c3c2)c1 [Example 55] | < 0.1 µM | < 0.1 µM |
| COc1cc(OC)c(Cl)c(-c2ccc3c(NC(=O)c4ccc(N5CCC(N(C)C)C5)cc4)n[nH]c3n2)c1Cl (stereo not drawn) [Example 100] | < 0.1 µM | < 0.1 µM |
| COc1cc(OC)c(Cl)c(-c2ccc3c(NC(=O)c4ccc(CCC(=O)N(C)C)cc4)n[nH]c3c2)c1Cl [Example 33, N-(6-(2,6-dichloro-3,5-dimethoxyphenyl)-1H-indazole-3-yl)-4-(3-(dimethylamino)-3-oxopropyl)benzamide] | < 0.1 µM | < 0.1 µM |
| COc1cc(OC)c(Cl)c(-c2ccc3c(NC(=O)c4ccc(N5C[C@@H](C)N[C@@H](C)C5)cn4)n[nH]c3c2)c1Cl [Example 21, N-(6-(2,6-dichloro-3,5-dimethoxyphenyl)-1H-indazole-3-yl)-5-((3R,5S)-3,5-dimethyl-1-yl)pyridine amide] | < 0.1 µM | < 0.1 µM |
| COc1cc(OC)c(Cl)c(-c2ccc3c(NC(=O)c4ccc(NCCN(C)C)cc4)n[nH]c3c2)c1Cl [Example 20, N-(6-(2,6-dichloro-3,5-dimethoxyphenyl)-1H-indazole-3-yl)-4-((2-(dimethylamino)ethyl)amino)benzamide] | < 0.1 µM | < 0.1 µM |
| COc1cc(OC)c(Cl)c(-c2ccc3c(NC(=O)c4ccc(N5CCNC(C)(C)C5)c(F)c4)n[nH]c3n2)c1Cl [Example 91, N-(6-(2,6-dichloro-3,5-dimethoxyphenyl)-1H-pyrazolo [3,4-b]pyridin-3-yl)-4-(3,3-dimethylpiperazine-1-yl)-3-fluorobenzamide] | < 0.1 µM | < 0.1 µM |
| COc1cc(OC)c(Cl)c(-c2ccc3c(NC(=O)c4ccc(NC(=O)CN(C)C)cc4)n[nH]c3c2)c1Cl [Example 28, N-(6-(2,6-dichloro-3,5-dimethoxyphenyl)-1H-indazole-3-yl)-4-(2-(dimethylamino)acetylamino)benzamide] | < 0.1 µM | < 0.1 µM |

Further lines, results first:

| IC50 (FGFR1) | IC50 (FGFR2) | Compound |
| --- | --- | --- |
| < 0.1 µM | < 0.1 µM | COc1cc(OC)c(F)c(-c2ccc3c(NC(=O)c4cnc(N5CCN(C)CC5)nc4)n[nH]c3c2)c1F [Example 96, N-(6-(2,6-difluoro-3,5-dimethoxyphenyl)-1H-indazole-3-yl)-2-(4-methylpiperazine-1-yl) pyrimidine-5-formamide] |
| < 0.1 µM | < 0.1 µM | COc1cc(OC)c(Cl)c(-c2ccc3c(NC(=O)c4ccc(N5CCNCC5)cc4)n[nH]c3c2)c1Cl [Example 25, N-(6-(2,6-dichloro-3,5-dimethoxyphenyl)-1H-indazole-3-yl)-4-(piperazine-1-yl)benzamide] |
| < 0.1 µM | < 0.1 µM | COc1cc(OC)c(Cl)c(-c2ccc3c(NC(=O)c4ccc(N5CCC(N(C)C)CC5)cc4)n[nH]c3c2)c1Cl [Example 37, N-(6-(2,6-dichloro-3,5-dimethoxyphenyl)-1H-indazole-3-yl)-4-(4-(dimethylamino)piperidine-1-yl)benzamide] |
| < 0.1 µM | < 0.1 µM | COc1cc(OC)c(Cl)c(-c2ccc3c(NC(=O)c4ccc(N5CCN(C(=O)C(C)(C)C)CC5)cc4)n[nH]c3c2)c1Cl [Example 30, N-(6-(2,6-dichloro-3,5-dimethoxyphenyl)-1H-indazole-3-yl)-4-(4-pivaloylpiperazine-1-yl)benzamide] |
| < 0.1 µM | < 0.1 µM | COc1cc(OC)c(Cl)c(-c2ccc3c(NC(=O)c4ccc(N5CCN(C(C)=O)CC5)cc4)n[nH]c3c2)c1Cl [Example 36, 4-(4-acetylpiperazine-1-yl)-N-(6-(2,6-dichloro-3,5-dimethoxyphenyl)-1H-indazole-3-yl)benzamide] |
| < 0.1 µM | < 0.1 µM | COc1cc(OC)c(Cl)c(-c2ccc3c(NC(=O)c4ccc(CN(C)C)cc4)n[nH]c3c2)c1Cl [Example 34, N-(6-(2,6-dichloro-3,5-dimethoxyphenyl)-1H-indazole-3-yl)-4-((dimethylamino)methyl)benzamide] |
| < 0.1 µM | < 0.1 µM | COc1cc(C(=O)Nc2n[nH]c3cc(-c4c(F)c(OC)cc(OC)c4F)ccc23)ccc1N1CCNC(C)(C)C1 [Example 97, N-(6-(2,6-difluoro-3,5-dimethoxyphenyl)-1H-indazole-3-yl)-4-(3,3-dimethylpiperazine-1-yl)-3-methoxybenzamide] |
| < 0.1 µM | < 0.1 µM | COc1cc(OC)c(F)c(-c2ccc3c(NC(=O)c4ccc(N5CCNC(C)(C)C5)cc4)n[nH]c3c2)c1F [Example 46, N-(6-(2,6-difluoro-3,5-dimethoxyphenyl)-1H-indazole-3-yl)-4-(3,3-dimethylpiperazine-1-yl)benzamide] |
| < 0.1 µM | < 0.1 µM | COc1cc(OC)c(Cl)c(-c2ccc3c(NC(=O)c4ccc(N5CCN(C(C)C)CC5)cc4)n[nH]c3c2)c1Cl [Example 24, N-(6-(2,6-dichloro-3,5-dimethoxyphenyl)-1H-indazole-3-yl)-4-(4-isopropyl-1-yl)benzamide] |
| < 0.1 µM | < 0.1 µM | CCN1CCN(c2ccc(C(=O)Nc3n[nH]c4cc(-c5c(F)c(OC)cc(OC)c5F)ccc34)cc2)CC1 [Example 47, N-(6-(2,6-difluoro-3,5-dimethoxyphenyl)-1H-indazole-3-yl)-4-(4-ethylpiperazine-1-yl)benzamide] |
| < 0.1 µM | < 0.1 µM | COc1cc(OC)c(F)c(-c2ccc3c(NC(=O)c4ccc(CN5CCN(C)CC5)cc4)n[nH]c3c2)c1F [Example 94, N-(6-(2,6-difluoro-3,5-dimethoxyphenyl)-1H-indazole-3-yl)-4-((4-methylpiperazine-1-yl)methyl)benzamide] |
| < 0.1 µM | < 0.1 µM | COc1cc(OC)c(F)c(-c2ccc3c(NC(=O)c4ccc(N5CCN(C)CC5)cc4)n[nH]c3c2)c1F [Example 45, N-(6-(2,6-difluoro-3,5-dimethoxyphenyl)-1H-indazole-3-yl)-4-(4-methylpiperazine-1-yl)benzamide] |
| < 0.1 µM | < 0.1 µM | COc1cc(OC)c(F)c(-c2ccc3c(NC(=O)c4ccc(N5CCCCC5)cc4)n[nH]c3c2)c1F [Example 93, N-(6-(2,6-difluoro-3,5-dimethoxyphenyl)-1H-indazole-3-yl)-4-(piperidine-1-yl)benzamide] |
